Structures can show the parent of a compound that is named as a salt.
Test system: arteria pulmonalis of the guinea pig
Assay: Relaxing action on potassium-depolarized, CaCl2-contracted spiral strips of guinea pig pulmonary artery (modified method of Godfraind and Kaba and of Schuman et al)
Assay type: cell-based
Conditions: Cavia porcellus; spiral strips depolarized with 40 mmol/l potassium; contraction initiated with 0.5 mmol/l CaCl2; cumulative addition; mean value of 4 to 6 strips of vessel; read-out: IC50 (concentration of test substance which inhibits the contraction by 50%)
Description: The pharmacological action of the compounds of the formula I has been determined by a modified method of Godfraind and Kaba (Arch. Int. Pharmacodyn. Ther. 196, (Suppl) 35 to 49, 1972) and of Schuman et al (Naunyn-Schmiedeberg's Arch Pharmacol. 289 409 to 418, 1975). […], spiral strips of the arteria pulmonalis of the guinea pig are depolarized with 40 mmol/l of potassium after equilibration in calcium-free tyrode solution. Addition of 0.5 mmol/l of CaCl2 then initiates a contraction. The relaxing action of the test substance is determined by cumulative addition in concentrations in steps of 1/2 log 10. The concentration of test substance which inhibits the contraction by 50% (=IC50, mol/l) is determined from the concentration/effects curve (abscissa: -log mol/l of test substance, ordinate: % inhibition of the maximum concentration, mean value of 4 to 6 strips of vessel).

Row | IC50 [µM] | SMILES
1 | 30 | CC1(C)CCCC(C)(C)N1[n+]1cc(=N)o[n-]1 [a, 3-(2,2,6,6-Tetramethylpiperidino)-sydnonimine hydrochloride]
2 | 3 | CC(C)N1CC(C)(C)N([n+]2cc(=N)o[n-]2)C(C)(C)C1 [b, 3-(2,2,6,6-Tetramethyl-4-isopropyl-piperazin-1-yl)sydnonimine dihydrochloride]
3 | 100 | CC1(C)COCC(C)(C)N1[n+]1cc(=N)o[n-]1 [c, 3-(3,3,5,5-Tetramethylmorpholino)-sydnonimine hydrochloride]
4 | 300 | CCOC(=O)[N-]c1cn(N2CCOCC2)n[o+]1 [d, N-Ethoxycarbonyl-3-morpholinosydnonimine, reference compound]
